Several values for one entry are separate records, joined by “and”; a condition that tells them apart may be missing. Equal values may be shown once. Read-outs that look alike come from different tables or passages of the source.
What was measured:
[1] = system: K562/Dox cells; assay: SRB cell viability assay, daunorubicin-resistant K562/Dox cells; assay type: cell-based, human; conditions: 72 h, background = 0.043
[2] = system: DU145-TxR cells; assay: SRB cell viability assay, docetaxel-resistant DU145-TxR cells; assay type: cell-based; conditions: Homo sapiens; for IC50: docetaxel, DU-145-TxR; for viability at 1 pM / viability at 0.0001 µM / viability at 0.000333 µM / viability at 0.001 µM / viability at 0.00333 µM / viability at 0.01 µM / viability at 0.0333 µM / viability at 0.1 µM: read-out: % viable, DU145-TxR; for viability at 1 pM: docetaxel 0.001 nM 72 h; for viability at 0.0001 µM: docetaxel 0.1 nM 72 h; for viability at 0.000333 µM: docetaxel 0.333 nM 72 h; for viability at 0.001 µM: docetaxel 1 nM 72 h; for viability at 0.00333 µM: docetaxel 3.33 nM 72 h; for viability at 0.01 µM: docetaxel 10 nM 72 h; for viability at 0.0333 µM: docetaxel 33.3 nM 72 h; for viability at 0.1 µM: docetaxel 100 nM 72 h
Description: Using the methods described in Example 2, the chemosensitizing effect of LGT-E pretreatment on docetaxel-treated DU145-TrX cells was studied. […] The DU145-TxR cells were plated at passage 38. […] Tables 6, 8, and 10 report control data obtained from DU145-TxR cells that were not pre-treated with LGT-E. FIG. 4 summarizes the data of Tables 5-10 in a graphical format.

CC(=O)O[C@@]12CO[C@@H]1C[C@H](O)[C@@]1(C)C(=O)[C@H](O)C3=C(C)[C@@H](OC(=O)[C@H](O)[C@@H](NC(=O)OC(C)(C)C)c4ccccc4)C[C@@](O)([C@@H](OC(=O)c4ccccc4)[C@H]21)C3(C)C [Docetaxel, docetaxel]
mean A at 565 nm ([1]; Docetaxel 0.001 nM (so in the source), no LGT-E pre-treatment): 2.771
mean A at 565 nm ([1]; Docetaxel 0.001 nM (so in the source), pre-treated with 25 μg/ml LGT-E): 2.747
mean A at 565 nm ([1]; Docetaxel 0.1 nM (so in the source), no LGT-E pre-treatment): 2.933
mean A at 565 nm ([1]; Docetaxel 0.1 nM (so in the source), pre-treated with 25 μg/ml LGT-E): 2.848
mean A at 565 nm ([1]; Docetaxel 0.333 nM (so in the source), no LGT-E pre-treatment): 2.960
mean A at 565 nm ([1]; Docetaxel 0.333 nM (so in the source), pre-treated with 25 μg/ml LGT-E): 2.811
mean A at 565 nm ([1]; Docetaxel 1 nM (so in the source), no LGT-E pre-treatment): 2.509
mean A at 565 nm ([1]; Docetaxel 1 nM (so in the source), pre-treated with 25 μg/ml LGT-E): 2.706
mean A at 565 nm ([1]; Docetaxel 3.33 nM (so in the source), no LGT-E pre-treatment): 2.848
mean A at 565 nm ([1]; Docetaxel 3.33 nM (so in the source), pre-treated with 25 μg/ml LGT-E): 2.300
mean A at 565 nm ([1]; Docetaxel 10 nM (so in the source), no LGT-E pre-treatment): 2.716
mean A at 565 nm ([1]; Docetaxel 10 nM (so in the source), pre-treated with 25 μg/ml LGT-E): 1.259
mean A at 565 nm ([1]; Docetaxel 33.3 nM (so in the source), pre-treated with 25 μg/ml LGT-E): 1.175
mean A at 565 nm ([1]; Docetaxel 100 nM (so in the source), no LGT-E pre-treatment): 0.723
mean A at 565 nm ([1]; Docetaxel 100 nM (so in the source), pre-treated with 25 μg/ml LGT-E): 0.510
IC50 ([2]; LGT-E 25 μg/ml pre-treatment, read-out: IC50 of drug when cells pre-treated with Chemosensitizing Agent before drug treatment): 5.76 nM and 0.00465 µg/mL
IC50 ([2]; line of LGT-E 25 μg/ml, read-out: IC50 of drug when cells treated with drug only): > 100 nM and ≥ 0.0808 µg/mL
viability at 1 pM ([2]; LGT-E 25 μg/ml pre-treatment): 100%
viability at 0.0001 µM ([2]; LGT-E 25 μg/ml pre-treatment): 102%
viability at 0.000333 µM ([2]; LGT-E 25 μg/ml pre-treatment): 102%
viability at 0.001 µM ([2]; LGT-E 25 μg/ml pre-treatment): 98.6%
viability at 0.00333 µM ([2]; LGT-E 25 μg/ml pre-treatment): 74.7%
viability at 0.01 µM ([2]; LGT-E 25 μg/ml pre-treatment): 33.5%
viability at 0.0333 µM ([2]; LGT-E 25 μg/ml pre-treatment): 13.7%
viability at 0.1 µM ([2]; LGT-E 25 μg/ml pre-treatment): 6.2%
viability at 1 pM ([2]; LGT-E 50 μg/ml pre-treatment): 100%
viability at 0.000333 µM ([2]; LGT-E 50 μg/ml pre-treatment): 97%
viability at 0.001 µM ([2]; LGT-E 50 μg/ml pre-treatment): 82.1%
viability at 0.00333 µM ([2]; LGT-E 50 μg/ml pre-treatment): 34.4%
viability at 0.01 µM ([2]; LGT-E 50 μg/ml pre-treatment): 11.6%
viability at 0.0333 µM ([2]; LGT-E 50 μg/ml pre-treatment): 5.4%
viability at 0.1 µM ([2]; LGT-E 50 μg/ml pre-treatment): 5.5%
viability at 1 pM ([2]; LGT-E […] pre-treatment): 100%
viability at 0.0001 µM ([2]; LGT-E […] pre-treatment): 98.1%
viability at 0.000333 µM ([2]; LGT-E […] pre-treatment): 96%
viability at 0.001 µM ([2]; LGT-E […] pre-treatment): 98.1%
viability at 0.00333 µM ([2]; LGT-E […] pre-treatment): 91.5%
viability at 0.01 µM ([2]; LGT-E […] pre-treatment): 82.9%
viability at 0.0333 µM ([2]; LGT-E […] pre-treatment): 41%
viability at 0.1 µM ([2]; LGT-E […] pre-treatment): 17.5%
viability at 1 pM ([2]; no pre-treatment (Table 6)): 100%
viability at 0.0001 µM ([2]; no pre-treatment (Table 6)): 103%
viability at 0.000333 µM ([2]; no pre-treatment (Table 6)): 102%
viability at 0.001 µM ([2]; no pre-treatment (Table 6)): 102%
viability at 0.00333 µM ([2]; no pre-treatment (Table 6)): 102%
viability at 0.01 µM ([2]; no pre-treatment (Table 6)): 102%
viability at 0.0333 µM ([2]; no pre-treatment (Table 6)): 101%
viability at 0.1 µM ([2]; no pre-treatment (Table 6)): 94.8%
viability at 1 pM ([2]; no pre-treatment (Table 8)): 100%
viability at 0.0001 µM ([2]; no pre-treatment (Table 8)): 102%
viability at 0.000333 µM ([2]; no pre-treatment (Table 8)): 102%
viability at 0.001 µM ([2]; no pre-treatment (Table 8)): 102%
viability at 0.00333 µM ([2]; no pre-treatment (Table 8)): 102%
viability at 0.01 µM ([2]; no pre-treatment (Table 8)): 100%
viability at 0.0333 µM ([2]; no pre-treatment (Table 8)): 98.1%
viability at 0.1 µM ([2]; no pre-treatment (Table 8)): 91%
viability at 1 pM ([2]; no pre-treatment (Table 10)): 100%
viability at 0.0001 µM ([2]; no pre-treatment (Table 10)): 101%
viability at 0.000333 µM ([2]; no pre-treatment (Table 10)): 97.7%
viability at 0.001 µM ([2]; no pre-treatment (Table 10)): 99.3%
viability at 0.00333 µM ([2]; no pre-treatment (Table 10)): 98.8%
viability at 0.01 µM ([2]; no pre-treatment (Table 10)): 97.2%
viability at 0.0333 µM ([2]; no pre-treatment (Table 10)): 95.4%
viability at 0.1 µM ([2]; no pre-treatment (Table 10)): 90.9%
